From patent US8815857B2 (Boehringer Ingelheim International GmbH, priority 2011, dated 2014)
In brackets after ≈: the same amount, converted by molar mass.

Assays:
[1] = target: T1, Recombinant human soluble guanylate cyclase (sGC), alpha 1 / beta 1 subunits, heme-free (Homo sapiens, UniProt Q02108+Q02153); assay: Molecular assay: cGMP formation by heme-free recombinant sGC (CisBio cGMP detection kit); type: biochemical; conditions: 300 pM heme-free sGC, 37° C., 60 min, cGMP readout; read-out: EC50 nM, Activity of Compounds in Molecular Assay
T1 construct: histidine tag (C); made in house; host or cells: Sf9 insect cells (baculovirus coinfection)
T1 sequence (Q02108 1-690 partner): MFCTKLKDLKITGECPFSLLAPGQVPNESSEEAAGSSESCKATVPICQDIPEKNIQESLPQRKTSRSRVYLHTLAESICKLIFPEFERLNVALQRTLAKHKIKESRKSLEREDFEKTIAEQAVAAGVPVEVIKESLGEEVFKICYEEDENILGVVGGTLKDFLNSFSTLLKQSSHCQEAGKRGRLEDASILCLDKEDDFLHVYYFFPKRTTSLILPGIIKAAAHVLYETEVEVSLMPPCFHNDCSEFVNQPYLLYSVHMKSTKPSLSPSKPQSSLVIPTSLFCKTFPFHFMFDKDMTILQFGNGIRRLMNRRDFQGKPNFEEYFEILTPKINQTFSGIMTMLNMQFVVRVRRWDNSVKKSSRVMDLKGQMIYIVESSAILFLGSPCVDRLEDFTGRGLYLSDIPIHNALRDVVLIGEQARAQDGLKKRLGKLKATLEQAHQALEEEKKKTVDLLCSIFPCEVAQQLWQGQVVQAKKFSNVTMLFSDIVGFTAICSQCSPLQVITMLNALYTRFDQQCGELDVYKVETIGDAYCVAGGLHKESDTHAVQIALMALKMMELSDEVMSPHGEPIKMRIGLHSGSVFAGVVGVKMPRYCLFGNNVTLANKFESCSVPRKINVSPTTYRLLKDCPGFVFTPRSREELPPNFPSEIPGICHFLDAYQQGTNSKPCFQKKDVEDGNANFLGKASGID
T1 sequence (Q02153 1-619): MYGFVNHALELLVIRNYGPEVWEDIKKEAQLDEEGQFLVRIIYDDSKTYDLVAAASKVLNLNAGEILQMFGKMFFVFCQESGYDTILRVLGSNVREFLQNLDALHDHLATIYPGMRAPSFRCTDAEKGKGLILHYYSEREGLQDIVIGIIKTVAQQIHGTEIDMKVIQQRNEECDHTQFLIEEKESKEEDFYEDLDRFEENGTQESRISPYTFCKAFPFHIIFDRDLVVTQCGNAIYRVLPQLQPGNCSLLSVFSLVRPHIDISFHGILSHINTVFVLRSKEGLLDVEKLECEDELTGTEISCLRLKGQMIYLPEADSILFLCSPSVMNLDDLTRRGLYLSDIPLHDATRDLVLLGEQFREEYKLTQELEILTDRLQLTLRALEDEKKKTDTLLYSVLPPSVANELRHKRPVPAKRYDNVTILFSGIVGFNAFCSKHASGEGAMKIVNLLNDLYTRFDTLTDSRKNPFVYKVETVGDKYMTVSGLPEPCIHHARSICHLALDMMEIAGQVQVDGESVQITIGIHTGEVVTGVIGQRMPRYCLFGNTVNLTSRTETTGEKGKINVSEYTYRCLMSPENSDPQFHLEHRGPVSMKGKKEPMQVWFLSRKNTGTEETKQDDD
Procedure: Recombinant human soluble guanylate cyclase (sGC) is purified from Sf9 insect cells coinfected with baculoviruses expressing the alpha 1 or beta 1 subunit of sGC, both with a C-terminal histidine tag. Heme-free sGC is prepared by treating cell lysate with a final concentration of 0.5% Tween 20 prior to purification on a nickel affinity column.
sGC catalyzes the conversion of guanosine-5′-triphosphate (GTP) to cyclic guanosine monophosphate (cGMP). The activity of sGC is measured in vitro using the commercially available CisBio cGMP detection kit (catalog # 62GM2PEB) in a 384 well format. In brief, 300 pM heme-free sGC is incubated in reaction buffer (50 mM MOPS pH 6.8, 0.2 N KOH, 50 mM NaCl, 2 mM MgCl2, 0.1% BSA, 1.25 mM IBMX, 0.25 mM TCEP, 50 nM GTP) in the presence or absence of dilutions of test compounds diluted in DMSO (final concentration of 1%) in a volume of 10 microL at 37° C. for 60 min. Undiluted reaction products or an 80-fold dilution of reaction products (10 microL of either) prepared in reaction buffer containing 0.2 mM TCEP and 10 mM EDTA is mixed with 5 microL of d2-cGMP plus 5 microL of Eu^3+ cryptate-labeled anti-cGMP, each diluted in buffer containing 0.1 M KPO4 pH 7.5, 0.4 M KF, 20 mM EDTA, 0.2% BSA. After a one h incubation at room temperature in the dark, the mixtures are quantified on an EnVision plate reader (PerkinElmer) according to manufacturer instructions (laser excitation 337 nm, emission 620 and 665 nm). The ratio at each compound concentration is converted to nM cGMP using the linear portion of a calibration curve. Log compound concentration is plotted against combined undiluted and diluted nM cGMP values to determine the EC50 for each curve.

[2] = Assessment of solubility: HT solubility in pION buffer, UV spectrophotometry; conditions: 16-19 h incubation, 1.0% DMSO; for solubility: pION system solution buffer, kinetic from dmso stock
[3] = pH 7.4, pH 7.4, aqueous buffer, Solubility (pH 7.4), pH 7.4 buffer
[4] = pH 4.5, pH 4.5, aqueous buffer, Solubility (pH 4.5), pH 4.5 buffer

Compound | EC50 [1] | Solubility (pH 4.5) ([2]; pH 4.5 buffer) | solubility [2, 3] | solubility [2, 4]
Cc1cc(C(=O)N2CCCCC2)ccc1COc1ccc(F)cc1-c1csc([C@H]2CC[C@H](C(=O)O)CC2)n1 [Compound 57] | 1800 nM | 0.1 μg/mL | > 53 µg/mL | –
Cc1ccc(OCc2ccc(CN3CCOCC3)cc2C)c(-c2csc(N3C4CCC3CC(C(=O)O)C4)n2)c1 (stereo not drawn) [Compound 174] | 320 nM | – | > 66 µg/mL | > 66 µg/mL
Cc1ccc(OCc2ccc(CN3CCS(=O)(=O)CC3)cc2C)c(-c2csc(N3CC4C(C3)C4C(=O)O)n2)c1 (stereo not drawn) [Compound 101] | 1700 nM | – | > 56 µg/mL | 3 µg/mL (≈ 5.28 µM)
Cc1cc(C(=O)N2CCCCC2)ccc1COc1ccc(C#N)cc1-c1csc(N2CCC(C(=O)O)C(C(F)(F)F)C2)n1 (stereo not drawn) [Compound 148] | 4100 nM | – | > 61 µg/mL | 0.3 µg/mL (≈ 0.49 µM)
Cc1cc(C(=O)N2CCCCC2)ccc1COc1ccc(C#N)cc1-c1csc(N2CCC(C(=O)O)CC2C)n1 (stereo not drawn) [Compound 85] | 1100 nM | – | > 55 µg/mL | 0.35 µg/mL (≈ 0.626 µM)
Cc1ccc(OCc2ccc(CNC(C)(C)CO)cc2C)c(-c2csc(N3CCC(C(=O)O)CC3)n2)c1 [Compound 26] | 2000 nM | – | > 63 µg/mL | > 63 µg/mL
Cc1cc(C(=O)N2CCCCC2)ccc1COc1ccc(C#N)cc1-c1csc(N2CC3C(C2)C3C(=O)O)n1 (stereo not drawn) [Compound 64] | 1800 nM | 0.1 μg/mL | > 54 µg/mL | –
Cc1cc(CN2CCS(=O)(=O)CC2)ccc1COc1ccc(C#N)cc1-c1csc(N2CCC(C(=O)O)C(C(F)(F)F)C2)n1 (stereo not drawn) [Compound 156] | 3100 nM | – | > 64 µg/mL | 0.45 µg/mL (≈ 0.694 µM)
Cc1ccc(OCc2ccc(C(=O)N3CCCCC3)cc2C)c(-c2csc(N3C4CCC3CC(C(=O)O)C4)n2)c1 (stereo not drawn) [Compound 88] | 15 nM | – | > 55 µg/mL | 0.45 µg/mL (≈ 0.804 µM)
Cc1cc(C(=O)N2CCCCC2)ccc1COc1ccc(F)cc1-c1csc(N2C3CCC2CC(C(=O)O)C3)n1 (stereo not drawn) [Compound 97] | 59 nM | – | > 56 µg/mL | 0.45 µg/mL (≈ 0.798 µM)
Cc1ccc(OCc2ccc(CN3CCS(=O)(=O)CC3)cc2C)c(-c2csc(N3C4CCC3CC(C(=O)O)C4)n2)c1 (stereo not drawn) [Compound 137] | 64 nM | – | > 59 µg/mL | 0.95 µg/mL (≈ 1.59 µM)
Cc1ccc(OCc2ccc(CNC(C)(C)CO)cc2C#N)c(-c2csc(N3CCC(C(=O)O)CC3)n2)c1 [Compound 47] | 4000 nM | – | > 64 µg/mL | > 64 µg/mL
Cc1cc(CN2CCOCC2)ccc1COc1ccc(Cl)cc1-c1csc(N2C3CCC2CC(C(=O)O)C3)n1 (stereo not drawn) [Compound 100] | 440 nM | – | 27 µg/mL (≈ 47.5 µM) | 20 µg/mL (≈ 35.2 µM)

The remaining compounds from weak to strong by EC50 [1], led by results:

EC50 [1] | Solubility (pH 4.5) ([2]; pH 4.5 buffer) | solubility [2, 3] | solubility [2, 4] | Compound
960 nM | – | > 53 µg/mL | 36 µg/mL (≈ 67.2 µM) | Cc1ccc(OCc2ccc(CN3CCOCC3)cc2C)c(-c2csc(N[C@H]3CC[C@@H](C(=O)O)CC3)n2)c1 [Compound 201]
760 nM | – | > 54 µg/mL | > 54 µg/mL | Cc1ccc(OCc2ccc(CN3CCOCC3)cc2C)c(-c2csc(NCCCC(=O)O)n2)c1 [Compound 4]
680 nM | – | > 51 µg/mL | 5.6 µg/mL (≈ 10.8 µM) | Cc1cc(C(=O)N2CCCCC2)ccc1COc1ccccc1-c1csc(N2CC3C(C2)C3C(=O)O)n1 (stereo not drawn) [Compound 9]
610 nM | – | > 62 µg/mL | > 62 µg/mL | Cc1ccc(OCc2ccc(CN3CCOCC3)cc2C)c(-c2csc(N3CCC(C(=O)O)C3)n2)c1 (stereo not drawn) [Compound 6]
510 nM | – | > 59 µg/mL | > 59 µg/mL | Cc1cc(CN2CCOCC2)ccc1COc1ccccc1-c1csc(N2CCC(C(=O)O)C(C)C2)n1 (stereo not drawn) [Compound 24]
380 nM | 0.1 μg/mL | > 62 µg/mL | – | Cc1cc(C(=O)N2CCCCC2)ccc1COc1ccc(Cl)cc1-c1csc(N2CCC(C(=O)O)C(C(F)(F)F)C2)n1 (stereo not drawn) [Compound 149]
250 nM | – | > 53 µg/mL | 25 µg/mL (≈ 47.1 µM) | Cc1cccc(-c2csc(N3CCC(C(=O)O)CC3)n2)c1OCc1ccc(C(=O)N2CCCC2)cc1C#N [Compound 31]
210 nM | – | 25 µg/mL (≈ 45 µM) | 11 µg/mL (≈ 19.8 µM) | Cc1cc(CN2CCOCC2)ccc1COc1ccc(Cl)cc1-c1csc(N2CCC(C(=O)O)C(C)C2)n1 (stereo not drawn) [Compound 83]
190 nM | – | > 51 µg/mL | 13 µg/mL (≈ 25 µM) | Cc1cc(C(=O)N2CCCC2)ccc1COc1c(C)cccc1-c1csc(N2CCC(C(=O)O)CC2)n1 [Compound 15]
110 nM | – | 32 µg/mL (≈ 59 µM) | 30 µg/mL (≈ 55.3 µM) | Cc1cc(CN2CCOCC2)ccc1COc1ccc(Cl)cc1-c1csc(N2CCC(C(=O)O)CC2)n1 [Compound 63]
100 nM | – | > 56 µg/mL | 2.3 µg/mL (≈ 4.04 µM) | Cc1cc(CN2CCS(=O)(=O)CC2)ccc1COc1ccccc1-c1csc(N2CCC(C(=O)O)CC2C)n1 (stereo not drawn) [Compound 108]
81 nM | – | > 58 µg/mL | 4.3 µg/mL (≈ 7.37 µM) | Cc1ccc(OCc2ccc(C(=O)N3CCS(=O)(=O)CC3)cc2C)c(-c2csc(N3CCC(C(=O)O)CC3)n2)c1 [Compound 122]
70 nM | – | > 52 µg/mL | > 52 µg/mL | Cc1cc(CN2CCOCC2)ccc1COc1c(C)cccc1-c1csc(N2CCC(C(=O)O)CC2)n1 [Compound 21]
61 nM | – | > 53 µg/mL | 3.1 µg/mL (≈ 5.84 µM) | Cc1ccc(OCc2ccc(C(=O)N3CCCC3)cc2C#N)c(-c2csc(N3CCC(C(=O)O)CC3)n2)c1 [Compound 30, 1-[4-[2-[[2-cyano-4-(pyrrolidine-1-carbonyl)phenyl]methoxy]-5-methyl-phenyl]thiazol-2-yl]piperidine-4-carboxylic acid]
39 nM | – | > 69 µg/mL | 1.6 µg/mL (≈ 2.76 µM) | Cc1ccc(OCc2ccc(CN3CCS(=O)(=O)CC3)cc2C#N)c(-c2csc(N3CCC(C(=O)O)CC3)n2)c1 [Compound 119]
30 nM | – | > 58 µg/mL | 0.3 µg/mL (≈ 0.51 µM) | Cc1cc(C(=O)N2CCCCC2)ccc1COc1ccccc1-c1csc(N2CCC(C(=O)O)CC2C(F)(F)F)n1 (stereo not drawn) [Compound 130]
22 nM | – | > 65 µg/mL | 30 µg/mL (≈ 55.3 µM) | Cc1cc(CN2CCOCC2)ccc1COc1c(Cl)cccc1-c1csc(N2CCC(C(=O)O)CC2)n1 [Compound 62]
7.6 nM | – | > 54 µg/mL | 1.9 µg/mL (≈ 3.47 µM) | Cc1ccc(OCc2ccc(C(=O)N3CCCCC3)cc2C)c(-c2csc(N3CCC(C(=O)O)CC3C)n2)c1 (stereo not drawn) [Compound 73]
